The values below come from patent US20250051375A1, “ANTI-HIV COMPOUNDS” (Gilead Sciences, Inc., priority 2023, published 2025).

Series [1] concerns HIV-1 IIIB strain. The series is described as follows: MT-4 HIV Wild Type Virus Infection Assay (IIIB Virus). Type of series: cell-based. The conditions noted are these: Human immunodeficiency virus 1, IIIB, MT4, 120 h, MT-4 cells acutely infected with HIV-1 IIIB, 5 day incubation, Cell-titer glo. As for the experimental part:
Test compounds and controls were serially diluted and spotted in replicate into 384 well black assay plates via acoustic transfer (Echo). MT-4 cells were grown in batch, centrifuged and resuspended into fresh CCM media (RPMI w/10% FBS, 1% PS) at 2×10^6 cells/ml. MT-4 cells were acutely infected with HIV-1 IIIB strain. The size of each infection mix was scaled by the number of sample plates to be tested. Each infection mix was transferred into 5 mL closed tubes and nutated rapidly on a shaker at 37° C. incubator for 1 hour. The infection mixes were then diluted 25× in fresh cell culture media and then added to assay plates at 40 μL per well using a ViaFlo 384 pipettor. After 5 day incubation at 37° C. in a CO2 incubator, assay plates were processed with Cell-titer glo reagent using a ViaFlo 384 with an addition/mixing program. Plates were read immediately on Envision reader. Assay signals were plotted and dose response curves generated to determine individual compound EC50s.

Series [2] in a line: PBS Stability Assay. In kind it is physicochemical. The conditions noted are these: buffer, pH 7.4, 2 μM, phosphate buffered saline pH 7.4; read-out: PBS T½. On the procedure: Reagents. Stock solutions of test compounds in dimethyl sulfoxide (DMSO) having a final concentration of 10 mM were prepared and used in all experiments. Sekisui XenoTech (Kansas City, KS) provided pooled intestinal S9 fractions. All other chemicals were purchased from Sigma-Aldrich (St. Louis, MO) or VWR (West Chester, PA). Internal Standard/Quench (IS/Q) used to stop reactions was 100 nM labetalol in (by volume) formic acid (1%) and acetonitrile (99%).
PBS Stability Assay: For each test compound, an aliquot of the test compound was added to phosphate buffered saline (137 mM NaCl, 2.7 mM KCl, 10 mM phosphate buffer), pH 7.4. The incubation was initiated by the addition of the test compound to PBS to a final concentration of 2 μM. At 0, 10, 20, 30, 60 and 120 min, 25 μL aliquots of the incubation mixture were transferred to plates containing 225 μl of IS/Q solution. After quenching, the plates were centrifuged at 3000×g for 30 minutes. 150 μL aliquots of each supernatant were transferred to new plates and 150 μL water was added. Aliquots (10 μL) of the prepared samples were analyzed on a Thermo Q-Exactive mass spectrometer as described below.
Liquid Chromatography-Mass Spectrometry: Quantification of test compounds and control substrate was performed by analyte/internal standard peak area ratio (PAR) values measured on a Thermo Q-Exactive mass spectrometer coupled to a Dionex UltiMate 3000 HPLC with a Leap Technologies HTC PAL autosampler. The column used for analysis was a Thermo Scientific Hypersil GOLD (1.9 μm particle size, 50×2.1 mm). Mobile phase A consisted of 0.1% (v/v) formic acid in water. Mobile phase B consisted of 0.1% (v/v) formic acid in acetonitrile. Elution of analytes was achieved by a series of linear gradients varying the proportions of A and B. The mass spectrometer was calibrated on a weekly basis and mass tolerance of 5 ppm was used.
Data Analysis. Metabolic stabilities were determined by measuring the rates of disappearance of test compound and positive control substrate. Data (% of substrate remaining) were plotted on a semi-log scale and fitted using an exponential decline model:
where • Ct% of substrate remaining at time=t • C0% of substrate remaining at time=0 • t time • T½ half-life • The Half-life (T½) is determined by the following equation:
[formula] • Assuming a first-order reaction, the slope (k) is extrapolated from the aforementioned plotted data.

The target in series [3] is bovine intestinal alkaline phosphatase (Bos taurus (Bovine), UniProt P19111). The series is described as follows: BiALP: conversion by bovine intestinal alkaline phosphatase. In kind it is in vitro ADME. The conditions noted are these: 2 μM substrate, 100 ng/mL iALP, Tris pH 7.8, 37° C., 60 minutes; for [Intermediate A] or [Amprenavir]: parent formed. As for the experimental part: Fosamprenavir and its parent compound (amprenavir) were purchased from Millipore Sigma (St. Louis, MO). Test compounds, Intermediate A, fosamprenavir, and amprenavir were each separately dissolved in dimethyl sulfoxide (DMSO) at a concentration of 10 mM to form stock solutions.
bovine intestinal alkaline phosphatase, sequence (P19111 20-506): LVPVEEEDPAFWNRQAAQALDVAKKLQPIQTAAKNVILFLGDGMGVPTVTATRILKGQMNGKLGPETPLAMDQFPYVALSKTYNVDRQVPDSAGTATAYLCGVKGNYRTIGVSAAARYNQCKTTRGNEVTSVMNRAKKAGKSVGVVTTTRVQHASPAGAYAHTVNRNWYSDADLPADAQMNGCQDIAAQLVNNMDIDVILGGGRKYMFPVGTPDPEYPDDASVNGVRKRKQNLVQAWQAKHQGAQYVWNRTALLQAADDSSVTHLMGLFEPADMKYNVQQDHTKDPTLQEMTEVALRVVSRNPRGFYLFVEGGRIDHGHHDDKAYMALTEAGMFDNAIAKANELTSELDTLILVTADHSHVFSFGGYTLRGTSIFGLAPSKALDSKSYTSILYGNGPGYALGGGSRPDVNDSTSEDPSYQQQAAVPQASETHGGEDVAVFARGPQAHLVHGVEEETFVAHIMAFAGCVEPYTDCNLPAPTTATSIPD
All other chemicals were purchased from Millipore Sigma (St. Louis, MO) and Thermo Fisher Scientific (Waltham, MA). […] Internal Standard/Quench (IS/Q) was 100 nM labetalol in 99:1 (v/v) acetonitrile/formic acid.
Incubations were performed with Tris buffer alone (0.1 M Tris-HCl pH 7.8 containing 1 mM MgCl2 and 1 mM ZnCl2) or the same Tris buffer further containing 100 ng/mL iALP (0.01 units/mL). Triplicate 100 μL aliquots of Tris buffer±iALP were warmed to 37° C. and the reactions were initiated by the addition of the test compound or fosamprenavir to obtain final substrate concentrations of 2 μM. Incubations were then continued at 37° C. At 60 minutes, reactions were terminated by the addition of 200 μl of IS/Q and mixed by pipette. […] Aliquots (150 μL) of the supernatants were transferred to fresh plates containing 150 μL of water. Aliquots (15 μL) of the diluted supernatants were analyzed by mass spectrometry as described below.
Quantification of the test compounds and fosamprenavir was performed by analyte/internal standard peak area ratios (PARs) with comparison to 2 μM Intermediate A and amprenavir, respectively. The LC instrumentation consisted of a Thermo Scientific Vanquish pump and a Thermo Hypersil Gold column (1.9 μm particle size, 2.1×50 mm). […] The MS instrument was a Thermo Q Exactive™ Plus operating in positive ionization mode with mass tolerance of 5 ppm and calibrated on a twice weekly basis.

Series [4] in a line: Solubility in FaSSIF. The conditions noted are these: 23 °C, pH 6.5, fassif, thermodynamic from solid. As for the experimental part: Buffer Preparation: Fasted State Simulated Intestinal Fluid (FaSSIF): Simulated Intestinal Fluid (SIF) powder containing a complex of Taurocholate and Lecithin (4:1 molar ratio) was obtained from Biorelevant. 0.056 g of SIF powder was added to 25 mL of buffer, adjusted to pH 6.5, containing 0.011 g of NaOH (pellets), 0.099 g of NaH2PO4 (monohydrate), and 0.155 g of NaCl. The buffer was prepared with HPLC H2O. The SIE powder was stirred until completely dissolved and allowed to stand for 2 hours.
Test Compounds: Each test compound was placed in a vial containing approximately 7 mg of material. Aliquots were weighed out for each assay media at each time point to be analyzed. The buffer was added to each vial such that the final dose concentration of 5 mg/mL was achieved. Samples were then vortexed for 5-10 seconds.
The plate was sealed with a pierceable heat seal and analyzed by HPLC-UV.

≈ marks a conversion by molar mass, not a printed value. Like-named read-outs stand apart in the source and are kept apart here.

`COC(=O)N[C@H](C(=O)N[C@@H](Cc1ccc(C#Cc2cnc(N3CC4CCC(C3)N4C3COC3)nc2)cc1)[C@H](CN(Cc1c(F)cc(-c2ccn(C(F)F)n2)cc1F)NC(=O)[C@@H](NC(=O)OC)C(C)(C)C(F)(F)F)OC(=O)OCOC(=O)CC(C)(C)c1c(C)cc(C)cc1OP(=O)(O)O)C(C)(C)C(F)(F)F` [Example 12]: in series [1] (read-out: EC50), the EC50 turned out to be 23.4 nM. For the same compound, the half-life at 2 μM in series [2] is 4.92 h.
Regarding `COC(=O)N[C@H](C(=O)N[C@@H](Cc1ccc(C#Cc2ccc(N3CC4CCC(C3)N4C3COC3)nc2)cc1)[C@H](CN(Cc1c(F)cc(-c2ccn(C(F)F)n2)cc1F)NC(=O)[C@@H](NC(=O)OC)C(C)(C)C(F)(F)F)OC(=O)CC(C)(C)c1c(CC(=O)NC(CC(=O)O)C(=O)O)cc(C)cc1CP(=O)(O)O)C(C)(C)C(F)(F)F` (stereo partly shown) [Example 23], the “[Compound]” value in series [3] stood at 2107.1 nM.
The same measure, in the same setting: the result for `COC(=O)N[C@H](C(=O)N[C@@H](Cc1ccc(C#Cc2cnc(N3CC4CCC(C3)N4C3COC3)nc2)cc1)[C@H](CN(Cc1c(F)cc(-c2ccn(C(F)F)n2)cc1F)NC(=O)[C@@H](NC(=O)OC)C(C)(C)C(F)(F)F)OC(=O)CC(C)(C)c1c(CC(=O)N([C@H](C)C(=O)O)S(=O)(=O)O)cc(C)cc1OP(=O)(O)O)C(C)(C)C(F)(F)F` [Example 32] reads 1435.5 nM; that for `COC(=O)N[C@H](C(=O)N[C@@H](Cc1ccc(C#Cc2cnc(N3CC4CCC(C3)N4C3COC3)nc2)cc1)[C@H](CN(Cc1c(F)cc(-c2ccn(C(F)F)n2)cc1F)NC(=O)[C@@H](NC(=O)OC)C(C)(C)C(F)(F)F)OC(=O)CC(C)(C)c1c(CC(=O)N([C@H](C)C(=O)O)S(=O)(=O)O)cccc1OP(=O)(O)O)C(C)(C)C(F)(F)F` [Example 39], 1310.3 nM.
`COC(=O)N[C@H](C(=O)N[C@@H](Cc1ccc(C#Cc2cnc(N3CC4CCC(C3)N4C3COC3)nc2)cc1)[C@H](CN(Cc1c(F)cc(-c2ccn(C(F)F)n2)cc1F)NC(=O)[C@@H](NC(=O)OC)C(C)(C)C(F)(F)F)OC(=O)OCOC(=O)CC(C)(C)c1c(CC(=O)N2CCN(CC(=O)O)CC2)cc(C)cc1OP(=O)(O)O)C(C)(C)C(F)(F)F` [Example 77] yielded a half-maximal effective concentration (EC50) in series [1] of 8.3 nM. In addition, the “[Compound]” value in series [3] stood at 2259 nM. The same compound showed a solubility at 2 h in series [4] of 2760 µg/mL (≈ 1640 µM).
For `COC(=O)N[C@H](C(=O)N[C@@H](Cc1ccc(C#Cc2cnc(N3CC4CCC(C3)N4C3COC3)nc2)cc1)[C@H](CN(Cc1c(F)cc(-c2ccn(C(F)F)n2)cc1F)NC(=O)[C@@H](NC(=O)OC)C(C)(C)C(F)(F)F)OC(=O)OCOC(=O)CC(C)(C)c1c(CC(=O)N2CCCC2C(=O)O)cc(C)cc1OP(=O)(O)O)C(C)(C)C(F)(F)F` (stereo partly shown) [Example 78], in that order: 3.1 nM, 2070.6 nM and 4390 µg/mL (≈ 2650 µM).
In series [1], `COC(=O)N[C@H](C(=O)N[C@@H](Cc1ccc(C#Cc2cnc(N3CC4CCC(C3)N4C3COC3)nc2)cc1)[C@H](CN(Cc1c(F)cc(-c2ccn(C(F)F)n2)cc1F)NC(=O)[C@@H](NC(=O)OC)C(C)(C)C(F)(F)F)OC(=O)CC(C)(C)c1c(CC(=O)N2CCN(S(C)(=O)=O)CC2)cc(C)cc1OP(=O)(O)O)C(C)(C)C(F)(F)F` [Example 80, (5S,10S,11S,14S)-8-(4-(1-(difluoromethyl)-1H-pyrazol-3-yl)-2,6-difluorobenzyl)-11-(4-((2-(8-(oxetan-3-yl)-3,8-diazabicyclo[3.2.1]octan-3-yl)pyrimidin-5-yl)ethynyl)benzyl)-3,6,13,16-tetraoxo-5,14-bis(1,1,1-trifluoro-2-methylpropan-2-yl)-2,17-dioxa-4,7,8,12,15-pentaazaoctadecan-10-yl 3-methyl-3-(4-methyl-2-(2-(4-(methylsulfonyl)piperazin-1-yl)-2-oxoethyl)-6-(phosphonooxy)phenyl)butanoate] registered a concentration giving a half-maximal response (EC50) of 735 nM. Also, in series [3], the “[Compound]” value was found to be 2507.9 nM, the “biALP Intermediate A or [Amprenavir] (% of total)” value is 0 % of total and the “[Intermediate A] or [Amprenavir]” value came to 0 nM. In series [4], this compound registered a solubility at 2 h of under 1000 µg/mL.
The corresponding values for `COC(=O)N[C@H](C(=O)N[C@@H](Cc1ccc(C#Cc2cnc(N3CC4CCC(C3)N4C3COC3)nc2)cc1)[C@H](CN(Cc1c(F)cc(-c2ccn(C(F)F)n2)cc1F)NC(=O)[C@@H](NC(=O)OC)C(C)(C)C(F)(F)F)OC(=O)CC(C)(C)c1c(CC(=O)N2CCN(S(N)(=O)=O)CC2)cc(C)cc1OP(=O)(O)O)C(C)(C)C(F)(F)F` [Example 81, (5S,10S,11S,14S)-8-(4-(1-(difluoromethyl)-1H-pyrazol-3-yl)-2,6-difluorobenzyl)-11-(4-((2-(8-(oxetan-3-yl)-3,8-diazabicyclo[3.2.1]octan-3-yl)pyrimidin-5-yl)ethynyl)benzyl)-3,6,13,16-tetraoxo-5,14-bis(1,1,1-trifluoro-2-methylpropan-2-yl)-2,17-dioxa-4,7,8,12,15-pentaazaoctadecan-10-yl 3-methyl-3-(4-methyl-2-(2-oxo-2-(4-sulfamoylpiperazin-1-yl)ethyl)-6-(phosphonooxy)phenyl)butanoate] are 627 nM, 2385.2 nM, 0 % of total, 0 nM and under 1000 µg/mL.
For `CC(C)CN(C[C@@H](OP(=O)(O)O)[C@H](Cc1ccccc1)NC(=O)O[C@H]1CCOC1)S(=O)(=O)c1ccc(N)cc1` [Fosamprenavir, fosamprenavir, reference compound], in series [3], the “[Compound]” value stood at 1605 nM.
